Source: paper PMC6520365, “Structural and functional characterization of the PDZ domain of the human phosphatase PTPN3 and its interaction with the human papillomavirus E6 oncoprotein” (Scientific Reports, 2019)
Ends that are not written are not given here.

Target: T1, PTPN3-PDZ (Homo sapiens, UniProt P26045)
T1 construct: GST (followed by a TEV cleavage site) (N, cleaved yes); made in house; host or cells: E. coli BL21 Star (DE3)
T1 sequence (P26045 510-582 limits assumed): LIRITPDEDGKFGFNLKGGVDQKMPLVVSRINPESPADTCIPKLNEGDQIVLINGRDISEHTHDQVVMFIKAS
Experiment: NMR titration (1H,15N HSQC chemical shift perturbation) of PBM peptide affinity for PTPN3-PDZ
Type: binding
Method: The affinities of HPV16E6 PBM, HPV18E6 PBM, p38γ PBM and HBVc PBM for PTPN3-PDZ were measured by NMR titration. We followed ^1H, ^15N chemical shift perturbations of PTPN3-PDZ signals in the ^1H-^15N HSQC spectra as a function of increasing concentrations of the PBM peptide to determine the dissociation constant (KD) (Fig. S1). […] The KD values are all in the same tenth-of-micromolar range for the viral PBMs and are close to the one of the cellular partner p38γ. […]
Briefly, the unlabeled peptides (stock solutions ranging from 2.8 to 5.7 mM) at pH 7.5 were added stepwise in a sample initially containing 240–260 μL of ^15N-labeled PTPN3-PDZ at a concentration of 95 or 149 μM. A series of ^1H, ^15N HSQC spectra was recorded for the different titration points. Chemical shift changes were calculated using the free PTPN3-PDZ signals as a reference. Chemical shift differences in the cross-peaks by titration were calculated using the relationship: Δδ = ((ΔδHN)^2 + (0.15 × ΔδN)^2)^0.5 where ΔδHN and ΔδN are changes in the ^1H and ^15N chemical shifts in ppm, respectively. […]

Sequence: RQERLQRRETQV [HPV18E6 PBM]
- Kd: 37 ± 20 µM
